From paper doi:10.1101/2025.01.28.635346v1 (bioRxiv, 2025)
Bridge positions count the residues as written; N and C are the ends. Side chains are listed from the residue outwards. Peptide text beside a SMILES is read from it. * marks the point of attachment. Butanoyl(4-(4-I-phenyl)) = O=C(CCCc1ccc(I)cc1)*; PEG2 = NCCOCCOCCC(=O)O

How the values were obtained:
KvLQT1/minK = KvLQT1/minK (Homo sapiens, UniProt P15382+P51787); experiment: Safetyscan47 Ion Channel, Opener; format: cell-based; conditions: for Emax: read-out: Max Response
CCKAR = biological target: T1, CCKAR (Homo sapiens, UniProt P32238); experiment: Safetyscan47 GPCR Calcium Flux, Agonist; format: cell-based; conditions: for Emax: read-out: Max Response
T1 sequence (P32238 1-428): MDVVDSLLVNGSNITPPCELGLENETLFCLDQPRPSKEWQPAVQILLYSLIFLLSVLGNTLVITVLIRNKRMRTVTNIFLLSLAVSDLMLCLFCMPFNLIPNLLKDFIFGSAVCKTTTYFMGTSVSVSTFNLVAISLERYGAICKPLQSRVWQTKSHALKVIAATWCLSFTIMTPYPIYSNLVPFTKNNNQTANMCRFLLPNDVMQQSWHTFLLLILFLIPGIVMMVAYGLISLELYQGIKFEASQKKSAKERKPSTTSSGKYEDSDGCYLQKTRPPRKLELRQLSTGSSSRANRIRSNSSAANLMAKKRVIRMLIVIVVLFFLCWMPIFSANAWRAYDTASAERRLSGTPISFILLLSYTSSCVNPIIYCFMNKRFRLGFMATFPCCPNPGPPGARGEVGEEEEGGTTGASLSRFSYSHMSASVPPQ

COX2 = biological target: T2, COX2 (Homo sapiens, UniProt P35354); experiment: Safetyscan47 Non-Kinase Enzymes Enzymatic, Inhibitor; format: biochemical; conditions: for Emax: read-out: Max Response
T2 sequence (P35354 18-604): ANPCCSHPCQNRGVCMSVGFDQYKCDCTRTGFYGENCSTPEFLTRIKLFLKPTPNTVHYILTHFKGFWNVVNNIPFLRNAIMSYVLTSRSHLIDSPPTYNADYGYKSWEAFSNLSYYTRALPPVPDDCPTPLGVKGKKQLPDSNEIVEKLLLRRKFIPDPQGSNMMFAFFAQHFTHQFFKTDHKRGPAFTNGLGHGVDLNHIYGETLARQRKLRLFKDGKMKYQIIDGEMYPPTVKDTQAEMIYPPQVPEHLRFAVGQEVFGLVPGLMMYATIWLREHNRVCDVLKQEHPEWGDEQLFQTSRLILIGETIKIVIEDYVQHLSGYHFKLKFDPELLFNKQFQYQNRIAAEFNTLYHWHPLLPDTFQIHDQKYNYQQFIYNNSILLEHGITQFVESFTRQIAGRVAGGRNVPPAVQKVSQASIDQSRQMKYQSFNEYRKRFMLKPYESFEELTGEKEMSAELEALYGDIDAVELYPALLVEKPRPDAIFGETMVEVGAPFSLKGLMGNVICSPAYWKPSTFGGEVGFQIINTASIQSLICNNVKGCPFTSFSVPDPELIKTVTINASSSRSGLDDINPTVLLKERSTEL

HRH1 [1] = biological target: T3, HRH1 (Homo sapiens, UniProt P35367); experiment: Safetyscan47 GPCR Calcium Flux, Antagonist; format: cell-based; conditions: for Emax: read-out: Max Response
AVPR1A = AVPR1A (Homo sapiens, UniProt P37288); experiment: Safetyscan47 GPCR Calcium Flux, Agonist; format: cell-based; conditions: for Emax: read-out: Max Response
AChE = AChE (Homo sapiens, UniProt P22303); experiment: Safetyscan47 Non-Kinase Enzymes Enzymatic, Inhibitor; format: biochemical; conditions: for Emax: read-out: Max Response
HRH1 [2] = biological target: T3, HRH1; experiment: Safetyscan47 GPCR Calcium Flux, Agonist; format: cell-based; conditions: for Emax: read-out: Max Response
CNR1 = CNR1 (Homo sapiens, UniProt P21554); experiment: Safetyscan47 GPCR cAMP, Agonist; format: cell-based; conditions: for Emax: read-out: Max Response
OPRM1 = OPRM1 (Homo sapiens, UniProt P35372); experiment: Safetyscan47 GPCR cAMP, Agonist; format: cell-based; conditions: for Emax: OPRM1, read-out: Max Response
NMDAR (1A/2B) = NMDAR (1A/2B) (Homo sapiens, UniProt Q05586+Q13224); experiment: Safetyscan47 Ion Channel, Opener; format: cell-based; conditions: for Emax: read-out: Max Response
[3] = Plasma protein binding, rapid equilibrium dialysis, mouse plasma; format: in vitro ADME; conditions: for Plasma protein binding, %Recovery: mouse plasma, RED, 2 μM, 4 h, 37°C; for fraction unbound at 4 h, 2 μM: mouse, plasma, pH 7.4
integrin α8β1 = integrin α8β1 (Homo sapiens, UniProt P05556+P53708); experiment: ELISA competition assay, integrin α8β1; format: binding
DRD2S = DRD2S (Homo sapiens, UniProt P14416); experiment: Safetyscan47 GPCR cAMP, Antagonist; format: cell-based; conditions: for Emax: read-out: Max Response
OPRK1 = OPRK1 (Homo sapiens, UniProt P41145); experiment: Safetyscan47 GPCR cAMP, Antagonist; format: cell-based; conditions: for Emax: read-out: Max Response
HTR3A = biological target: T4, HTR3A (Homo sapiens, UniProt P46098); experiment: Safetyscan47 Ion Channel, Opener; format: cell-based; conditions: for Emax: read-out: Max Response
T4 sequence (P46098 24-478): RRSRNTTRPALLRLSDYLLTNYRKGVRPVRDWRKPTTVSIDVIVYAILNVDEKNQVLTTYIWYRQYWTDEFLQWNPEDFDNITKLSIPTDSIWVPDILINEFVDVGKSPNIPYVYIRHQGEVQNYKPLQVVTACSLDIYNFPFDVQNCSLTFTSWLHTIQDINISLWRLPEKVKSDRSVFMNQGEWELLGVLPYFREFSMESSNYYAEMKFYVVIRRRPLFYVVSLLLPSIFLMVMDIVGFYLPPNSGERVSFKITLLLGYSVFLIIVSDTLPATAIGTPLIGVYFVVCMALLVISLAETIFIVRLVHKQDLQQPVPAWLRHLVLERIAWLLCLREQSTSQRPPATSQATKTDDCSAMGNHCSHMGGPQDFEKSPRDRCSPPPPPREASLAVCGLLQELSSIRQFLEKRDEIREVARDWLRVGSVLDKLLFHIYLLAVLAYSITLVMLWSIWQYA

integrin α5β1 = integrin α5β1 (Homo sapiens, UniProt P05556+P08648); experiment: ELISA competition assay, integrin α5β1; format: binding

Row | SMILES | EC50 (KvLQT1/minK) | Emax (KvLQT1/minK) | EC50 (CCKAR) | Emax (CCKAR) | IC50 (COX2) | Emax (COX2) | IC50 (HRH1 [1]) | Emax (HRH1 [1]) | EC50 (AVPR1A) | Emax (AVPR1A) | IC50 (AChE) | Emax (AChE) | EC50 (HRH1 [2]) | Emax (HRH1 [2]) | EC50 (CNR1) | Emax (CNR1) | EC50 (OPRM1) | Emax (OPRM1) | EC50 (NMDAR (1A/2B)) | Emax (NMDAR (1A/2B)) | also measured
1 | CC[C@H](C)[C@H](NC(=O)[C@H](CC(C)C)NC(=O)[C@H](CC(=O)O)NC(=O)CNC(=O)[C@H](CCCNC(=N)N)NC(=O)[C@@H](NC(=O)[C@H](Cc1ccccc1)NC(=O)[C@H](Cc1ccc(O)cc1)NC(=O)[C@@H]1CCC(=O)NCC(=O)NCC(=O)N[C@@H](CCCNC(=N)N)C(=O)NCC(=O)N[C@@H](Cc2c[nH]cn2)C(=O)N[C@@H](C(C)C)C(=O)N2CCC[C@H]2C(=O)N1)C(C)C)C(=O)N[C@@H](CO)C(=O)N[C@@H](Cc1ccccc1)C(=O)N[C@@H](Cc1ccc(O)cc1)C(=O)N[C@@H](CCCCN)C(=O)O [lassotide 36] (GGRGHVPEYFVRGDLISFYK-OH; lactam N-8) | > 45 µM | 0% | > 45 µM | 4.58% | > 45 µM | 26.5% | > 45 µM | 0.3% | > 45 µM | 1.03% | > 45 µM | 0% | > 45 µM | 2.03% | > 45 µM | 1.38% | > 45 µM | 3.7% | > 45 µM | 4.66% | Plasma protein binding, %Recovery [3]: 91%; fraction unbound at 4 h, 2 μM [3]: 0.222; IC50 (integrin α8β1): 3.89 µM; IC50 (DRD2S): > 45 µM; Emax (DRD2S): 0%; IC50 (OPRK1): > 45 µM; Emax (OPRK1): 0%; EC50 (HTR3A): > 45 µM; Emax (HTR3A): 0%; IC50 (integrin α5β1): 2.35 µM
2 | CC[C@H](C)[C@H](NC(=O)[C@H](CC(C)C)NC(=O)[C@H](CC(=O)O)NC(=O)CNC(=O)[C@H](CCCNC(=N)N)NC(=O)[C@@H](NC(=O)[C@H](Cc1ccccc1)NC(=O)[C@H](Cc1ccc(O)cc1)NC(=O)[C@@H]1CCC(=O)NCC(=O)NCC(=O)N[C@@H](CCCNC(=N)N)C(=O)NCC(=O)N[C@@H](Cc2c[nH]cn2)C(=O)N[C@@H](C(C)C)C(=O)N2CCC[C@H]2C(=O)N1)C(C)C)C(=O)N[C@@H](CO)C(=O)N[C@@H](Cc1ccccc1)C(=O)N[C@@H](Cc1ccc(O)cc1)C(=O)N[C@@H](CCCCNC(=O)CCOCCOCCNC(=O)CCCc1ccc(I)cc1)C(=O)O [lassotide 47] (GGRGHVPEYFVRGDLISFYK([PEG2-Butanoyl(4-(4-I-phenyl))])-OH; lactam N-8) | > 45 µM | 0% | > 45 µM | 0% | > 45 µM | 18.7% | > 45 µM | 0% | > 45 µM | 8.02% | > 45 µM | 7.88% | > 45 µM | 0% | > 45 µM | 29.1% | > 45 µM | 18.4% | > 45 µM | 3.52% | Plasma protein binding, %Recovery [3]: 100%; fraction unbound at 4 h, 2 μM [3]: 0.005; IC50 (integrin α8β1): > 10 µM; IC50 (DRD2S): > 45 µM; Emax (DRD2S): 0%; IC50 (OPRK1): > 45 µM; Emax (OPRK1): 0%; EC50 (HTR3A): > 45 µM; Emax (HTR3A): 0.79%; IC50 (integrin α5β1): 5.02 µM
